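Cells were grown in 96-well plates and exposed to each compound for 48 hours at five concentrations; endpoints were interpolated linearly between bracketing concentrations, or set to the highest concentration if not reached. The concentration for full growth arrest is given as TGI.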
Tests used:
Test in all cases: NCI anticancer screen, dose series, 48 h
SNB-19 CNS = test system: SNB-19 CNS
SN12C renal = test system: SN12C renal
SF-268 CNS = test system: SF-268 CNS
ACHN renal = test system: ACHN renal
A549 NSCLC = test system: A549 NSCLC
T-47D breast = test system: T-47D breast
OVCAR-5 ovarian = test system: OVCAR-5 ovarian
KM12 colon = test system: KM12 colon
MCF7 breast = test system: MCF7 breast

Structure (SMILES) | TGI (SNB-19 CNS) [µM] | TGI (SN12C renal) [µM] | TGI (SF-268 CNS) [µM] | TGI (ACHN renal) [µM] | TGI (A549 NSCLC) [µM] | TGI (T-47D breast) [µM] | TGI (OVCAR-5 ovarian) [µM] | TGI (KM12 colon) [µM] | TGI (MCF7 breast) [µM]
O=C1CSC(c2cccs2)N1c1nc2cc3sc(N4C(=O)CSC4c4cccs4)nc3cc2s1 (centres undefined) | > 50 | > 50 | > 50 | > 50 | > 50 | > 50 | > 50 | > 50 | > 50
Cn1c2ccccc2n2c(=O)c3cc([N+](=O)[O-])ccc3c(C#N)c12 | > 100 | – | > 100 | > 100 | > 100 | > 100 | > 100 | > 100 | > 100
O=C(Cc1ccccc1)NN1C(=O)/C(=C\c2ccc([N+](=O)[O-])cc2)SC1=Nc1ccccc1 | > 100 | > 100 | > 100 | > 100 | > 100 | > 100 | > 100 | > 100 | > 100
NC1CNC(=O)c2c(Cl)sc(Cl)c21 (centres undefined) | > 100 | > 100 | > 100 | > 100 | > 100 | > 100 | > 100 | > 100 | > 100
O=c1c(-c2ccc(Cl)cc2)nnc2n(Cc3ccccc3)c3ccccc3n12 | 72 | > 100 | > 100 | > 100 | > 100 | > 100 | > 100 | > 100 | > 100
CCOC(=O)C(NC(=O)CC(C)C)(N1CCN(c2cc3c(cc2F)c(=O)c(C(=O)O)cn3C2CC2)CC1)C(F)(F)F (centres undefined) | > 100 | > 100 | 40.8 | 34.6 | > 100 | 86.7 | 32.8 | 39.4 | 68.4
CCOc1cc(-c2nc3ccccn3c2/N=C/c2cc(Br)ccc2O)ccc1O | 52.6 | > 100 | > 100 | > 100 | > 100 | 22.4 | > 100 | – | 43.6
O=c1[nH]nc(-c2ccccc2)c2[nH]c(-c3ccccc3)cc12 | > 100 | > 100 | > 100 | – | > 100 | > 100 | > 100 | > 100 | –
Brc1ccc2c(-c3csc(-c4c[nH]c5ccc(Br)cc45)n3)c[nH]c2c1 | 14.7 | 18.9 | 13.2 | 11.1 | 19 | 21.3 | 7.54 | 6.4 | > 100
O=C(CSc1n[nH]c(=O)[nH]c1=O)NNC(=O)c1cccc2nc3ccccc3nc12 | > 100 | > 100 | > 100 | > 100 | > 100 | > 100 | > 100 | > 100 | > 100
O=C(Cc1ccc([N+](=O)[O-])cc1)OCC#CCOC(=O)Cc1ccc([N+](=O)[O-])cc1 | > 10 | > 10 | > 10 | > 10 | > 10 | > 10 | > 10 | > 10 | > 10
Cc1cc2ncc3c(=O)n(NS(=O)(=O)c4ccc(N)cc4)ccc3n2n1 | > 100 | > 100 | > 100 | > 100 | > 100 | > 100 | > 100 | > 100 | > 100
COc1cc(I)c2c3c1OC1C34CCN(C)C(C2)C4=CC(I)C1(OC)OC (centres undefined) | 71.9 | 31.9 | 61.5 | 98.3 | > 100 | 31.1 | 81.6 | 40 | 64.3
FC(F)(F)c1ccc2nc3n(c2c1)C(c1c(Cl)cccc1Cl)SC3 (centres undefined) | 34 | 32.7 | 41.8 | 32.1 | 29.5 | 26.9 | 30.4 | 28.3 | 37.9
NC(=O)c1cc2ccccc2o/c1=N/O | > 100 | > 100 | > 100 | > 100 | > 100 | > 100 | – | > 100 | > 100
Brc1cccc(N=NN2CCCC2)c1 | > 100 | > 100 | > 100 | > 100 | – | > 100 | > 100 | > 100 | > 100
O=[N+]([O-])c1ccc(NC(=S)N=Nc2c(O)[nH]c3ccc(Br)cc23)cc1 | – | 23.8 | 26.1 | 18 | – | 37.8 | 28.3 | 22 | 22
OC1(c2ccc(Cl)cc2)c2ccc3ccccc3c2C2=N[C@H]3CCCC[C@@H]3N21 (some centres undefined) | > 100 | > 100 | > 100 | > 100 | > 100 | 26.5 | 57.2 | > 100 | > 100
CC(=O)OCC(OC(C)=O)C1C[C@H]2O[C@@H]3[C@H](C[C@H]2O1)O[C@@]1(C[C@@H]3C)C[C@H](C)[C@@H]2O[C@]3(C[C@@H]2O1)C[C@H]1O[C@H]2[C@H](C)[C@H]4OC(=O)CC5CC[C@H]6OC7[C@H]8O[C@]9(CC[C@H]%10CC(O)(CO)[C@H](CC[C@H]%11C[C@@H](C)C(O)(CO)C(C[C@@H]4O[C@H]2C[C@H]1O3)O%11)O%10)CC8O[C@@H]7[C@@H](O9)[C@H]6O5 (some centres undefined) | > 1 | > 1 | > 1 | > 1 | > 1 | – | > 1 | > 0.333 | > 1
O=C(N/N=C/c1ccco1)c1cc(I)cc(I)c1O | > 50 | 38.7 | > 50 | > 50 | > 50 | > 50 | 40.9 | – | > 50
c1ccc2c3c(c(N4CCOCC4)nc2c1)CCCC3 | > 100 | > 100 | > 100 | > 100 | > 100 | 72.8 | 81.2 | > 100 | > 100
